US6939511B2, “Contact lens treating method and composition” (Novartis AG, priority 2000, dated 2005)

System: L929 mammalian fibroblasts
Assay: MEM (Minimum Essential Medium) USP elution in-vitro toxicity test
Assay type: cell-based
Description: In testing the toxicity of compounds of the compositions disclosed in solution, an MEM test procedure is used. The MEM (Minimum Essential Medium) test procedure is employed to evaluate cytoxicity using standard USP (The United States Pharmacopeial Convention) elution assays. A description of the test procedure is provided herein.
The assay provides a means of evaluating extracts of polymeric materials under direct contact conditions. This method is appropriate for high-density materials and for dose-response evaluations.
All reagents should be tissue culture grade or equivalent and should be reconstituted in accordance with manufacturer's instructions using aseptic technique.
Media Preparation: 1× MEM media is prepared by mixing 100 mL Eagle's MEM (with Earl's Salts and Sodium Bicarbonate, without L-glutamine), with 10 mL serum, 1 mL-glutamine solution, and 0.5 mL antibiotic solution (L-glutamine and antibiotic solutions are purchased at correct concentrations and stored frozen at −20° C.±2). Eagle's MEM is a sterile minimum essential medium and is available from Mediatech Celigro. Media may be stored up to 2 weeks at a temperature of 2° C.±2 after L-glutamine and antibiotics are added, or up to 1 month, if only serum is added. Preparation of 0.25% Trypsin: 10× Trypsin is placed in sterile 50 ml centrifuge tubes in 4 ml aliquots and stored frozen at −20° C.±2. Before use, a 4 ml aliquot of 10× trypsin is diluted 1:9 with 36 ml of Dulbecco's Phosphate Buffered Saline (PBS) to yield a 0.25% solution. Dulbecco's Saline is available from Mediatech Cellgro. Sterile 35 mm diameter petri dishes or 6 well tissue culture plates are used. Sterile serological pipets are employed in the procedure. Sterile absorbent material (e.g. Kay-Drys or similar material) is used. L929 mammalian fibroblasts (ATCC cell line CCL1, NCTC clone 929) are employed. […]
Exposure to Test Extracts: Exposure to test extracts is determined examining a representative prepared cell culture plate using the microscope to observe the cell monolayer for correct confluency. […]

With `O.O.O.O.O.O.O=C([O-])c1ccccc1C(=O)O[O-].[Mg+2]` [magnesium perphthalate, magnesium monoperoxyphthalate hexahydrate] the cells dead (concentrations below 0.5%) was 2-3%, the “MEM Test Result level” value (concentrations below 0.5%, generally) was 1 (Slight Not more than 20% of cells round and loosely attached—occasional lysed cells present) and the “toxicity level MEM” value (concentrations of 0.5% and above, with and without saline) was 4.
